Legend:
ALOMY = assay: Pre-emergence action against ALOMY; format: in vivo, Alopecurus myosuroides; conditions: dosage 320 g/ha; pre-emergence; scored visually after 3 weeks vs untreated controls; 100% = plants have died, 0% = like control plants
In short: (§1)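 Seeds sown in sandy loam in wood-fiber pots and covered with soil. Greenhouse growth; visual damage scored after 3 weeks versus untreated controls (100% = dead, 0% = like control).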

AVEFA = assay: Pre-emergence action against AVEFA; format: in vivo, Avena fatua; conditions: dosage 320 g/ha, scored visually after 3 weeks vs untreated controls
In short: as §1

CYPES [1] = assay: Pre-emergence action against CYPES; format: in vivo, Cyperus esculentus; conditions: pre-emergence, dosage 320 g/ha, scored visually after 3 weeks vs untreated controls
In short: as §1

ECHCG [2] = assay: Pre-emergence action against ECHCG; format: in vivo, Echinochloa crus-galli; conditions: pre-emergence, dosage 320 g/ha, scored visually after 3 weeks vs untreated controls
In short: as §1

LOLMU = assay: Pre-emergence action against LOLMU; format: in vivo, Lolium multiflorum; conditions: dosage 320 g/ha, scored visually after 3 weeks vs untreated controls
Text: (§2) Seeds of monocotyledonous and dicotyledonous weed plants and crop plants are laid out in sandy loam soil in wood-fiber pots and covered with soil. The compounds of the invention, formulated in the form of wettable powders (WP) or as emulsion concentrates (EC), are then applied to the surface of the covering soil in the form of an aqueous suspension or emulsion at a water application rate equating to […], with addition of 0.2% wetting agent. After the treatment, the pots are placed in a greenhouse and kept under good growth conditions for the trial plants. The damage to the test plants is scored visually after a test period of 3 weeks by comparison with untreated controls (herbicidal activity in percent (%): 100% activity=the plants have died, 0% activity=like control plants).

SETVI [3] = assay: Pre-emergence action against SETVI; format: in vivo, Setaria viridis; conditions: pre-emergence, dosage 320 g/ha, scored visually after 3 weeks vs untreated controls
In short: as §1

ABUTH [4] = assay: Pre-emergence action against ABUTH; format: in vivo, Abutilon theophrasti; conditions: pre-emergence, dosage 320 g/ha, scored visually after 3 weeks vs untreated controls
In short: as §1

AMARE [5] = assay: Pre-emergence action against AMARE; format: in vivo, Amaranthus retroflexus; conditions: pre-emergence, dosage 320 g/ha, scored visually after 3 weeks vs untreated controls
In short: as §1

MATIN [6] = assay: Pre-emergence action against MATIN; format: in vivo, Matricaria inodora; conditions: Dosage 320 g/ha, pre-emergence
In short: as §1

POLCO [7] = assay: Pre-emergence action against POLCO; format: in vivo, Polygonum convolvulus; conditions: Dosage 320 g/ha, pre-emergence
In short: as §1

STEME [8] = assay: Pre-emergence action against STEME; format: in vivo, Stellaria media; conditions: Dosage 320 g/ha, pre-emergence
In short: as §1

VIOTR [9] = assay: Pre-emergence action against VIOTR; format: in vivo, Viola tricolor; conditions: Dosage 320 g/ha, pre-emergence
In short: as §1

VERPE [10] = assay: Pre-emergence action against VERPE; format: in vivo, Veronica persica; conditions: Dosage 320 g/ha, pre-emergence
In short: as §1

CYPES [11] = assay: Post-emergence action against CYPES; format: in vivo, Cyperus esculentus; conditions: post-emergence, dosage 80 g/ha, visual assessment about 3 weeks after treatment vs untreated controls
In short: (§3)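 Post-emergence foliar spray on greenhouse plants at the one-leaf stage, using wettable-powder or emulsion-concentrate formulations in water (600 to […], plus 0.2% wetting agent). Damage scored by eye roughly 3 weeks later against untreated plants: 0% = like control, 100% = dead.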

ECHCG [12] = assay: Post-emergence action against ECHCG; format: in vivo, Echinochloa crus-galli; conditions: post-emergence, dosage 80 g/ha, visual assessment about 3 weeks after treatment vs untreated controls
In short: as §3

SETVI [13] = assay: Post-emergence action against SETVI; format: in vivo, Setaria viridis; conditions: post-emergence, dosage 80 g/ha, visual assessment about 3 weeks after treatment vs untreated controls
In short: as §3

ABUTH [14] = assay: Post-emergence action against ABUTH; format: in vivo, Abutilon theophrasti; conditions: post-emergence, dosage 80 g/ha, visual assessment about 3 weeks after treatment vs untreated controls
In short: as §3

AMARE [15] = assay: Post-emergence action against AMARE; format: in vivo, Amaranthus retroflexus; conditions: post-emergence, dosage 80 g/ha, visual assessment about 3 weeks after treatment vs untreated controls
In short: as §3

MATIN [16] = assay: Post-emergence action against MATIN; format: in vivo, Matricaria inodora; conditions: post-emergence, dosage 80 g/ha, visual assessment about 3 weeks after treatment vs untreated controls
In short: as §3

PHBPU = assay: Post-emergence action against PHBPU; format: in vivo, Pharbitis purpurea; conditions: post-emergence, dosage 80 g/ha
In short: as §3

POLCO [17] = assay: Post-emergence action against POLCO; format: in vivo, Polygonum convolvulus; conditions: post-emergence, dosage 80 g/ha
In short: as §3

STEME [18] = assay: Post-emergence action against STEME; format: in vivo, Stellaria media; conditions: post-emergence, dosage 80 g/ha
In short: as §3

VIOTR [19] = assay: Post-emergence action against VIOTR; format: in vivo, Viola tricolor; conditions: post-emergence, dosage 80 g/ha
In short: as §3

DIGSA = assay: Pre-emergence action against DIGSA; format: in vivo, Digitaria sanguinalis; conditions: dosage 320 g/ha, scored visually after 3 weeks vs untreated controls
Text: as §2

LOLRI = assay: Pre-emergence action against LOLRI; format: in vivo, Lolium rigidum; conditions: dosage 320 g/ha, scored visually after 3 weeks vs untreated controls
In short: as §1

VERPE [20] = assay: Post-emergence action against VERPE; format: in vivo, Veronica persica; conditions: dosage 80 g/ha
In short: as §3

SMILES | Pre-emergence action against ALOMY (herbicidal activity in percent) (ALOMY) [%] | Pre-emergence action against AVEFA (herbicidal activity) (AVEFA) [%] | Pre-emergence action against CYPES (herbicidal activity) (CYPES [1]) [%] | Pre-emergence action against ECHCG (herbicidal activity) (ECHCG [2]) [%] | Pre-emergence action against LOLMU (herbicidal activity) (LOLMU) [%] | SETVI (Table B8, pre-emergence herbicidal activity) (SETVI [3]) [%] | Pre-emergence action against ABUTH (herbicidal activity) (ABUTH [4]) [%] | Pre-emergence action against AMARE (herbicidal activity) (AMARE [5]) [%] | Pre-emergence action against MATIN (MATIN [6]) [%] | Pre-emergence action against STEME (STEME [8]) [%] | Pre-emergence action against VIOTR (VIOTR [9]) [%] | Pre-emergence action against VERPE (VERPE [10]) [%] | Post-emergence action against CYPES (herbicidal action in percent) (CYPES [11]) [%] | Post-emergence action against ECHCG (herbicidal action in percent) (ECHCG [12]) [%] | Post-emergence action against ABUTH (herbicidal action in percent) (ABUTH [14]) [%] | Post-emergence action against AMARE (herbicidal action in percent) (AMARE [15]) [%] | Post-emergence action against MATIN (herbicidal action in percent) (MATIN [16]) [%] | Post-emergence action against PHBPU (PHBPU) | Post-emergence action against POLCO (POLCO [17]) | Post-emergence action against STEME (STEME [18]) | other results
CCC(=O)c1c(Cl)ccc(C(=O)Nc2nnnn2CC)c1Cl [2-115] | 100 | 90 | 90 | 100 | 100 | 90 | 100 | 100 | 100 | 100 | 100 | 90 | 80 | 90 | 90 | 90 | 100 | 90 | 100 | 100 | Pre-emergence action against POLCO (POLCO [7]): 80%; Post-emergence action against SETVI (herbicidal action in percent) (SETVI [13]): 90%; Post-emergence action against VIOTR (VIOTR [19]): 100
CSc1c(C(=O)Nc2nnnn2C)ccc(C(F)(F)F)c1C(=O)C1CCCC1 [1-285] | – | 80 | – | 80 | – | – | 100 | 100 | 100 | 100 | 100 | 90 | – | – | 90 | 90 | – | 80 | – | 80 | Pre-emergence action against DIGSA (herbicidal activity) (DIGSA): 90%; Pre-emergence action against LOLRI (herbicidal activity) (LOLRI): 80%
CCn1nnnc1NC(=O)c1ccc(Cl)c(C(C)=O)c1Cl [2-114] | 80 | 80 | 90 | 100 | 80 | 90 | 100 | 100 | 90 | 90 | 100 | 90 | 90 | 90 | 90 | 100 | 80 | 90 | 90 | 100 | Post-emergence action against VIOTR (VIOTR [19]): 100; Post-emergence action against VERPE (VERPE [20]): 80

Reference: patent publication US11051515B2, “3-acyl-benzamides and their use as herbicides” (Bayer Aktiengesellschaft, priority 2017, dated 2021)
